Patent EP1714645A1, “Pharmaceutical composition containing bakuchiol for treating breast cancer in women” (Sinphar Pharmaceutical Co., Ltd., priority 2005, dated 2006)
Converted amounts (≈) assume the structure as drawn.

Key:
[1] = system: MDA-MB231; experiment: Cytotoxicity assay (CCK-8, net growth % vs control); format: cell-based; conditions: Homo sapiens, MDA-MB-231; MDA-MB231 (estrogen receptor negative), 48 hours incubation; read-out: 50% inhibition of cell growth concentrations of test compounds (IC50)
Source text: (§1) Materials: DMEM (medium), RPMI (medium), L-glutamine, penicillin, streptomycin and FBS (fetal bovine serum) were obtained from Gibco (NY, USA). Culture plasticware was purchased from Coming (MA, USA). […] All other chemicals used were of reagent grade and were purchased from Sigma or E. Merck (Germany).
(§2) Cell lines and cell cultures: The human breast cancer cell lines T47D and MDA-MB231 were obtained from American Type Culture Collection (ATCC). Of both cancer cells, T47D is estrogen receptor positive, and MDA-MB231 is estrogen receptor negative. Cells were cultured at 37°C in RPMI medium containing 10% charcoal-dextran stripped fetal bovine serum for T47D cells and in DMEM medium containing 10% charcoal-dextran stripped fetal bovine serum for MDA-MB231 cells with 5% CO2. The cell proliferation was determined by counting the viable cells with trypan blue exclusion.
(§3) Cytotoxicity assay: Dispense 198 µl of cell suspension (20,000 cells for T47D per well and 10,000 cell for MDA-MB231 per well) in a 96-well plate and pre-incubate the plate for 24 hours in an incubator at 37°C with humidified 5% CO2. […] After plate was incubated for 48 hours in the incubator, media were aspirated of and new media (100 µl) were added and incubated for 1 more hour. […] Measure the absorbance at 450 nm using a ELISA reader. […]

[2] = system: T47D; experiment: as above; format: cell-based; conditions: Homo sapiens; T47D (estrogen receptor positive), 48 hours incubation; read-out: 50% inhibition of cell growth concentrations of test compounds (IC50)
Source text: as §1, §2, §3

[3] = system: female Wistar rats; experiment: Ovariectomized rat osteoporosis model, bone histomorphometry of proximal tibia; format: in vivo; conditions: two months, mean value, p < 0.001 vs OVX; for Bone volume % (BV/TV): proximal tibia head trabecular bone, OVX group 12.50%, Sham 29.50%; for Erosion surface (ESBS, %): proximal tibia, OVX group 5.8%, Sham 4.7%
Source text: (§4) The purpose of this example is to show the potency of bakuchiol in treating osteoporosis, wherein ovary of a female rat is removed to stimulate osteoporosis caused by estrogen deficiency.
(§5) The female Wistar rats of 16 weeks old (unless specified in the other experiment description) were obtained from the stock reared by the Animal breeding center, National Scientific Council in Taipei. These rats were grouped by weights matched in order to distribute the physiological response variation from rats evenly into each group. These rats were grouping as follows: • Baseline group fed with no drug added food (n=8) • Sham operation group fed with no drug added food (Sham) (n=10) • Ovariectomy operation group fed with no drug added food (OVX) (n=8) • Ovariectomy operation group fed with Drug A (5 mg/kg) added food (OVX+A) (n=9) • Ovariectomy operation group fed with Drug B (15 mg/kg) added food (OVX+B) (n=9)
Ovariectomy (removal of ovaries) operation: Ovariectomy was induced using a protocol similar to that described by Wronski et al (Wronski et al, Endocrinology, 123(2), 681-86 (1988)).
During the experiments, the rats were housed in hanging grid cages in groups of two at 21°C with a 12 hours dark cycle. Food (Rat-mouse diet III, adequate in 1 % of calcium content and 1.2 % of phosphate content, Purina, USA) was administered by paired feeding between the experimental and control groups. Pair-feeding was carried out by calculating the average amount of food intake in the Sham group. So give the same amount of food to the OVX , OVX+A (5 mg/kg), OVX+B (15 mg/kg) group animals the following day. These animals were fed with a period of two months except for the baseline group which were killed on the very day of doing ovariectomy or sham operation. Rats of OVX+A and OVX+B groups were fed with the usual food chuck but added certain amount of compound A and B in it respectively. Water was given ad libitum to all rats.
The test drug was weighted according to dose of 5 mg/kg and 15 mg/kg, and added into the ususal food chuck powder and mixed with 10% starch paste. After fully mixed, these chuck powder were made into mass manually and dried by air flow oven. The food with added drug to rats was performed by single blind method.
These labeling and bone histomorphometry assessment were done based on standard procedure in bone research (Lin et al, Calcif. Tissue Int., 67, 373-377 (2000)). Specimen were prestained with Villanueva bone stain, then […] and embedded in London resin. Undecalcified sections of 7 µm thick were cut using Jung-K microtome (Leica Ltd, USA) and treated with Villanueva stain for observation under light microscopy. Seven µm thick unstained sections were prepared for fluorescent microscopy and assessed with program Osteomeasure (3.0 version, Atlanta, USA). […]

[4] = system: female Wistar rats; experiment: Ovariectomized rat osteoporosis model, apparent bone density measurement of tibia (Archimedes principle); format: in vivo; conditions: two months, mean value, OVX group 1.549, Sham 1.589, p < 0.05 vs OVX
Source text: as §4, §5
Ovariectomy (removal of ovaries) operation: Ovariectomy was induced using a protocol similar to that described by Wronski et al (Wronski et al, Endocrinology, 123(2), 681-86 (1988)). […]
The whole tibia and femur were stripped off attached muscles and ligaments after sacrifice. […] The weight of bone measured in the air was marked as W-air. […] The apparent bone density was calculated as [W-air/(W-air minus W-water)] […]

[5] = system: five different human cancer cells (lung (A549), ovary (SK-OV-3), skin (SK-MEL-2), central nervous system (XF498), and large intestine (HCT)); conditions: range over A549, SK-OV-3, SK-MEL-2, XF498, HCT; cited from earlier work

Structure (SMILES): C=C[C@@](C)(/C=C/c1ccc(O)cc1)CCC=C(C)C [Bakuchiol, bakuchiol]
- IC50 [1]: 0.62 µg/mL (≈ 2.42 µM)
- IC50 [2]: 5 µg/mL (≈ 19.5 µM)
- Bone volume % (BV/TV) ([3]; OVX+A group (5 mg/kg) in food): 19.80%
- Erosion surface (ESBS, %) ([3]; OVX+A group (5 mg/kg) in food): 5.0%
- Bone volume % (BV/TV) ([3]; OVX+B group (15 mg/kg) in food): 20.11%
- Erosion surface (ESBS, %) ([3]; OVX+B group (15 mg/kg) in food): 4.8%
- Bone apparent density ([4]; OVX+A group (5 mg/kg) in food): 1.582 gm/cm^3
- Bone apparent density ([4]; OVX+B group (15 mg/kg) in food): 1.587 gm/cm^3
- average inhibitory concentration (IC50) [5]: 10~15 µg/cc
